Test results reported in PubChem BioAssay AID179 (DTP/NCI, 2004).
Active and inactive are the calls of the source.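 The calls were made as follows: active = compounds giving half or more protection of infected cells from virus-caused growth loss, again on retest; inactive = the rest.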

Test system: CEM cells HIV-1 protection, formazan growth assay
Assay: NCI AIDS Antiviral Assay
Settings: for IC50: measured here: growth of uninfected CEM cells
Method in brief: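 Protection of CEM cells against HIV-1 was scored from cell growth (soluble formazan) across five concentrations, with parallel uninfected cells. Lack of protection may reflect toxicity.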

**Q.** For CCOC(=O)c1cc(/C=C/C(C)=C/C(=O)OC)n(C)c1C, which EC50 is on record?
**A.** The EC50 was over 24.5 µM.

**Q.** What about the IC50 of the same molecule?
**A.** The IC50 was over 24.5 µM.

**Q.** What does the source list for COC(=O)[C@]1(C)CC[C@]2(C)CC[C@]3(C)C4CC[C@@]56CO[C@@](O)(CCC5[C@]4(C)CCC3(C)[C@@H]2C1)[C@@H]6C (stereo partly drawn)?
**A.** EC50: > 28.2 µM; IC50: 26.9 µM

**Q.** For CCOc1cc(/C=C/c2c(C#N)c(=O)oc3ccc(C)cc23)ccc1O, which EC50 is on record?
**A.** Its EC50 is over 25.1 µM.

**Q.** And the IC50?
**A.** Its IC50 is 4.47 µM.

**Q.** Which results are given for O=C(O)CCSSCCC(=O)O?
**A.** EC50: > 200 µM; IC50: > 200 µM

**Q.** With CC1(C)S[C@H](c2ccccc2C(=O)O)N[C@@H]1CC(=O)O as the molecule, how does the outcome read?
**A.** The outcome was “inactive”.

**Q.** O=[N+]([O-])c1ccc(Cl)cc1N/N=C/c1cccs1 was tested. Which EC50 did it give?
**A.** Its EC50 is over 200 µM.

**Q.** And the IC50?
**A.** Its IC50 is over 100 µM.

**Q.** With CC(=O)OC1C(OC(C)=O)[C@@]2(C)C(C(OC(C)=O)[C@@H]3C2C(C)C=C2OC(=O)[C@@](C)(O)[C@@]23C)[C@H]2C1[C@]1(C)C(C[C@@H]3O[C@@H]3C1OC(C)=O)C(=O)[C@@H]2O (stereo partly drawn) as the molecule, how does the outcome read?
**A.** Its outcome is “inactive”.

**Q.** How did the outcome turn out when CSC1=Nc2ccccc2-c2nc3ccccc3cc2C1 was run?
**A.** The outcome was “inactive”.

**Q.** Which EC50 does the source give for O=C1C=C(Nc2ccccc2C(=O)c2ccccc2)c2ccccc2C1=O here?
**A.** Its EC50 is over 2.95 µM.

**Q.** What about the IC50 of the same molecule?
**A.** The IC50 was over 2.95 µM.

**Q.** CCOC(=O)/C=C/SCCNC(=O)OCC was tested. Which EC50 did it give?
**A.** Its EC50 is over 204 µM.

**Q.** And the IC50?
**A.** The IC50 was 120 µM.

**Q.** For Cc1cc(O)c2c(c1)C(=O)c1cc(O)cc(O)c1C2=O, which outcome is on record?
**A.** Its outcome is “inactive”.

**Q.** How did the outcome turn out when C=C(C)[C@@H]1CC[C@]2(C(=O)OC)CC[C@]3(C)[C@H](CC[C@@H]4[C@@]5(C)CC[C@H](O)C(C)(C)[C@@H]5CC[C@]43C)[C@@H]12 was run?
**A.** The outcome was “inactive”.

**Q.** With O=C1OC(C2Cc3ccc4c(c3C2=O)CCCC4)c2ccccc21 (stereo not drawn) as the molecule, how does the EC50 read?
**A.** Its EC50 is over 200 µM.

**Q.** What about the IC50 of the same molecule?
**A.** Its IC50 is 33.9 µM.

**Q.** CC1(O)CCC2(C)C(=O)C1(C)CCC21OCCO1 (stereo not drawn) was tested. Which outcome did it give?
**A.** Its outcome is “inactive”.

**Q.** With O=C(CN1CCOCC1)c1ccc2[nH]c(=O)oc2c1 as the molecule, how does the EC50 read?
**A.** The EC50 was over 200 µM.

**Q.** And the IC50?
**A.** The IC50 was 155 µM.

**Q.** Which EC50 does the source give for O=C(NC(=Nc1ccccc1)SCSC(=Nc1ccccc1)NC(=O)c1ccc(F)cc1)c1ccc(F)cc1 here?
**A.** Its EC50 is over 200 µM.

**Q.** And the IC50?
**A.** The IC50 was over 200 µM.

**Q.** C=CCC12CC(O)C(O)CC1(OC)OC(c1cc(OC)c(OC)c(OC)c1)C2C (stereo not drawn) was tested. Which EC50 did it give?
**A.** Its EC50 is over 200 µM.

**Q.** What about the IC50 of the same molecule?
**A.** Its IC50 is 129 µM.

**Q.** Which EC50 does the source give for Cc1cn(C(=O)NC23CC4CC(CC(C4)C2)C3)c(=O)[nH]c1=O here?
**A.** Its EC50 is over 100 µM.

**Q.** And the IC50?
**A.** Its IC50 is 51.3 µM.

**Q.** For CCOc1ccc(/C=C/C(=O)c2sc(NNC(C)=O)nc2C)cc1, which EC50 is on record?
**A.** Its EC50 is over 20.9 µM.

**Q.** What about the IC50 of the same molecule?
**A.** Its IC50 is over 20.9 µM.

**Q.** Which EC50 does the source give for CC(=O)OCC1OC(n2c3c(c(-c4ccc(Cl)cc4)c(C#N)c2=S)C(=O)CC(C)(C)C3)C(OC(C)=O)C(OC(C)=O)C1OC(C)=O (stereo not drawn) here?
**A.** The EC50 was over 200 µM.

**Q.** What about the IC50 of the same molecule?
**A.** The IC50 was 6.46 µM.

**Q.** How did the outcome turn out when CC1(c2nc3cc(Cl)c(Cl)cc3[nH]2)CCC(CO)C(C)(C)O1 (stereo not drawn) was run?
**A.** The outcome was “inactive”.

**Q.** Which results are given for O=C(O)c1c2c(nc3ccccc13)-c1ccccc1C1(CCCC1)C2?
**A.** EC50: > 468 µM; IC50: 170 µM

**Q.** With O=C1NC(=O)C23CCCCc4cccc(c42)C(=O)C13 (stereo not drawn) as the molecule, how does the EC50 read?
**A.** The EC50 was over 372 µM.

**Q.** What about the IC50 of the same molecule?
**A.** The IC50 was over 372 µM.

**Q.** Nc1nc2ncn(CC(O)CO)c2c(=O)[nH]1 (stereo not drawn) was tested. Which EC50 did it give?
**A.** The EC50 was over 60.3 µM.

**Q.** What about the IC50 of the same molecule?
**A.** The IC50 was over 60.3 µM.

**Q.** Which EC50 does the source give for COc1ccc(NC(=O)C(=O)/C=C(\O)c2ccccc2)cc1 here?
**A.** The EC50 was over 200 µM.

**Q.** And the IC50?
**A.** The IC50 was 9.33 µM.

**Q.** How did the EC50 turn out when CC1=Nc2nnnn2N=C(C)C1 was run?
**A.** The EC50 was over 234 µM.

**Q.** And the IC50?
**A.** Its IC50 is over 234 µM.

**Q.** Which EC50 does the source give for CCOC(=O)/C(=C/c1cccc(Cl)c1)N(CC)CC here?
**A.** Its EC50 is over 91.2 µM.

**Q.** What about the IC50 of the same molecule?
**A.** The IC50 was over 91.2 µM.

**Q.** How did the outcome turn out when Cc1ccc(NC(=O)/C(Cl)=C(/Cl)C(=O)O)cc1 was run?
**A.** The outcome was “inactive”.

**Q.** Which results are given for Cc1nc2c(=O)n(C)c(=O)nc-2n(CCO)c1C?
**A.** EC50: > 100 µM; IC50: 83.2 µM

**Q.** Which results are given for O=C(OCCN1CCCC1)c1cc2ccccc2n1-c1ccccc1?
**A.** EC50: > 200 µM; IC50: 46.8 µM

**Q.** Which results are given for CC/C(Cl)=N\OC(=O)Nc1ccc(OC)c(C)c1?
**A.** EC50: > 20 µM; IC50: 15.8 µM

**Q.** How did the EC50 turn out when CN1c2ccccc2S(=O)(=O)n2c(COc3ccc(Cl)cc3)nnc21 was run?
**A.** Its EC50 is over 200 µM.

**Q.** What about the IC50 of the same molecule?
**A.** The IC50 was over 200 µM.

**Q.** What does the source list for CC(=O)OC(C(=O)NNC(=O)OC(C)(C)C)c1ccccc1 (stereo not drawn)?
**A.** EC50: > 200 µM; IC50: > 200 µM

**Q.** With COC(=O)/C=C/c1c[nH]c2nccnc12 as the molecule, how does the EC50 read?
**A.** The EC50 was over 166 µM.

**Q.** And the IC50?
**A.** Its IC50 is 53.7 µM.

**Q.** Which results are given for c1ccc2c(c1)oc1ccc3nsnc3c12?
**A.** EC50: > 15.8 µM; IC50: > 15.8 µM

**Q.** Which EC50 does the source give for O=C1c2cc3c(cc2CC12Cc1cc4c(cc1C2=O)CCCC4)CCCC3 here?
**A.** The EC50 was over 200 µM.

**Q.** What about the IC50 of the same molecule?
**A.** Its IC50 is over 200 µM.

**Q.** For Cc1ccc([PH+](CC[PH+](c2ccccc2)c2ccccc2)c2ccc(C)cc2)cc1.Cc1ccc([PH+](CC[PH+](c2ccccc2)c2ccccc2)c2ccc(C)cc2)cc1.[Pt], which EC50 is on record?
**A.** Its EC50 is over 6.92 µM.

**Q.** And the IC50?
**A.** Its IC50 is 3.8 µM.

**Q.** Cc1ccc(N=Nc2ccc(O)c(=O)cc2)cc1 was tested. Which EC50 did it give?
**A.** The EC50 was over 11.2 µM.

**Q.** And the IC50?
**A.** The IC50 was 6.92 µM.

**Q.** O=C([O-])c1ccc([I+]c2ccccc2)cc1 was tested. Which outcome did it give?
**A.** Its outcome is “inactive”.

**Q.** What does the source list for Cc1c(/C=N/NC(=O)c2ccccc2O)c(=O)n(-c2ccccc2)n1C?
**A.** EC50: > 200 µM; IC50: 69.2 µM

**Q.** For Cc1ccc(C)c(N2C(=O)C(=O)C(c3nc4ccccc4o3)/C(=N\NC(=O)c3ccccc3O)C2=O)c1 (stereo not drawn), which outcome is on record?
**A.** Its outcome is “inactive”.

**Q.** Which results are given for O=C(Nc1cc(Cl)c(Cl)cc1Cl)C(=O)C(C(=O)c1ccc2ccccc2c1)C1OC(=O)c2ccccc21 (stereo not drawn)?
**A.** EC50: > 64.6 µM; IC50: 31.6 µM

**Q.** CN(NC(=O)Nc1cccc2ccccc12)c1ccccc1 was tested. Which EC50 did it give?
**A.** The EC50 was over 24.5 µM.

**Q.** What about the IC50 of the same molecule?
**A.** The IC50 was over 24.5 µM.

**Q.** Which results are given for O=C(Nc1ccccc1)N(C1=NCC(CI)S1)c1ccc(F)cc1F (stereo not drawn)?
**A.** EC50: > 200 µM; IC50: 25.1 µM
